From paper PMC12027554, “Inhibition of ABCG2 by SCO-101 Enhances Chemotherapy Efficacy in Cancer” (International Journal of Molecular Sciences, 2025) come the findings set out here.

Read-outs that look alike come from different tables or passages of the source.

One assay concerns the target T1, MRP2/ABCC2 (Homo sapiens, UniProt Q92887).
T1 construct: purchased SOLVO biotechnology, Budapest, Hungary
Description: Efflux transporter inhibition, vesicular uptake into inside-out membrane vesicles (ABCC2). Type of assay: biochemical. The settings on record: 100 μM 5(6)-carboxy-2′,7′-dichlorofluorescein. On the procedure: (§1) Efflux transporter inhibition was evaluated by measuring vesicular uptake into inside-out membrane vesicles (SOLVO biotechnology, Budapest, Hungary) expressing a single human ABC transporter (0.67 mg/mL ABCB1; 0.67 mg/mL ABCC2; 0.33 mg/mL ABCG2 membrane protein) of a probe substrate (1 μM N-methyl-quinidine for ABCB1; 100 μM 5(6)-carboxy-2′,7′-dichlorofluorescein for ABCC2; 1 μM Eestrone-3-sulfate for ABCG2) in the presence of SCO-101 with and without ATP (4 mM) in 96-well plate format. Control solvent and control inhibitors (4–60 μM verapamil for […]; 1–15 μM sulfasalazine for ABCG2; 5.5–150 μM benzbromarone for ABCC2) were incubated in parallel. Vesicular uptake was conducted at 37 °C in incubation buffer (10 mM Tris-HCl, pH 7.4, 10 mM MgCl2, 250 mM sucrose) and terminated after 1 min (ABCB1 and ABCG2) or 5 min (ABCC2) by adding ice-cold washing buffer (10 mM Tris-HCl, pH 7.4, 100 mM NaCl, 250 mM sucrose). […] Probe quantification was conducted using LC-MS/MS peak areas (solvent control with ATP − AMP = 100%). […] The remaining transporter activity % was calculated according to the formula below, and fitting was performed using GraphPad Prism: A%=AATP,sample−AAMP,sample/AATP,solvent−AAMP,solvent

Another assay addresses MDR1/ABCB1 (Homo sapiens, UniProt P08183). The experiment in a line: Efflux transporter inhibition, vesicular uptake into inside-out membrane vesicles (ABCB1). Type of assay: biochemical. The settings on record: 1 μM N-methyl-quinidine. On the procedure:
as §1

For a further assay, the target named is T2, human UGT1A1 enzyme (Homo sapiens, UniProt P22309).
T2 sequence (P22309 26-533): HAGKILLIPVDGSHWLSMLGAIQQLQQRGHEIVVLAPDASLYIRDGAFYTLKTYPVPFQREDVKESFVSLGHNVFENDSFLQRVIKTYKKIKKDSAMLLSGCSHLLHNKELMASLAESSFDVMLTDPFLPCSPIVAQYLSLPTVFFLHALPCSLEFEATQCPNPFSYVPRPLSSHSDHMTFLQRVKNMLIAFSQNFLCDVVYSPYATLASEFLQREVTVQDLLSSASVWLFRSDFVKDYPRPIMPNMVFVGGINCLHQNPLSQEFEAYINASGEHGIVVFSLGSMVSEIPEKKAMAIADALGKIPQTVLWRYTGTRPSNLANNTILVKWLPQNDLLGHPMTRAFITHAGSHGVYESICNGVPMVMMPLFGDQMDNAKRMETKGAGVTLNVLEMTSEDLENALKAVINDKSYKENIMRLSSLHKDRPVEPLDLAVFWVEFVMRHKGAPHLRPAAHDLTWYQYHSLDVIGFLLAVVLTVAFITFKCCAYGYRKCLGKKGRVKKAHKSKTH
Description: Inhibition of UGT1A1 glucuronidation activity (recombinant enzyme). Type of assay: biochemical. The settings on record: SCO-101 0.003–1 µM. On the procedure:
The inhibition potency of SCO-101 towards the human UGT1A1 enzyme was studied using recombinant human enzymes and the two different probe substrates β-estradiol (10 μM) and SN-38 (10 μM). Additionally, a positive control inhibitor at a single concentration (10 μM ketoconazole) and a solvent control were employed. Reactions were conducted at 37 °C after a 10 min pre-incubation at 37 °C in incubation buffer (10 mM Tris-HCl, pH 7.4, 5 mM MgCl2, […] alamethicin) and started by adding 5 mM UDPGA. Reactions were terminated after 30 min by adding an equal volume of ice-cold acetonitrile with 1% formic acid and 0.5 μM caffeine. The level of the UGT-specific probe glucuronidation was monitored by LC/MS-MS, and inhibition was observed as a reduced level of metabolite formation of the substrate.

A further assay concerns HT29SN-38 cells. The experiment in a line: Cellular dye efflux assay (Hoechst 33342), resistant cells. Type of assay: cell-based, human. The settings on record: SCO-101 20 µM, Ko-143 1 µM, PSC833 1 µM. On the procedure: Twenty-four hours before the experiments, cells were seeded into 96-well Nunclon^TM plates at a density of 6000 (HT29), 7000 (PANC-1) or 8000 (LoVo) cells/well. The following day, cells were treated in triplicate with the relevant drugs at the indicated concentrations for 1 h. Next, 5 μg/mL Hoechst 33342 was added to the wells, and plates incubated at 37 °C for 30 min^−1 h. Cells were washed with cold PBS, treatments re-added and plates re-incubated at 37 °C for 30 min to 1 h. Plates were analyzed using a Celigo® (Nexcelom Bioscience, Lawrence, MA, USA) imaging cytometer. Data are expressed as percentages of fluorescence intensity, calculated through the following formula: % fluorescence intensity=Mean fluorescence intensity of sample/Mean fluorescence intensity of parental control×100
Fluorescent images were captured with an Olympus® IX71/TH4-200 microscope equipped with an Olympus® DP72 camera (Shinjuku, Tokyo, Japan), and cells were seeded at a 1.5 × 10^5 cells/well density and treated as described above.

T1 sequence (Q92887 whole entry): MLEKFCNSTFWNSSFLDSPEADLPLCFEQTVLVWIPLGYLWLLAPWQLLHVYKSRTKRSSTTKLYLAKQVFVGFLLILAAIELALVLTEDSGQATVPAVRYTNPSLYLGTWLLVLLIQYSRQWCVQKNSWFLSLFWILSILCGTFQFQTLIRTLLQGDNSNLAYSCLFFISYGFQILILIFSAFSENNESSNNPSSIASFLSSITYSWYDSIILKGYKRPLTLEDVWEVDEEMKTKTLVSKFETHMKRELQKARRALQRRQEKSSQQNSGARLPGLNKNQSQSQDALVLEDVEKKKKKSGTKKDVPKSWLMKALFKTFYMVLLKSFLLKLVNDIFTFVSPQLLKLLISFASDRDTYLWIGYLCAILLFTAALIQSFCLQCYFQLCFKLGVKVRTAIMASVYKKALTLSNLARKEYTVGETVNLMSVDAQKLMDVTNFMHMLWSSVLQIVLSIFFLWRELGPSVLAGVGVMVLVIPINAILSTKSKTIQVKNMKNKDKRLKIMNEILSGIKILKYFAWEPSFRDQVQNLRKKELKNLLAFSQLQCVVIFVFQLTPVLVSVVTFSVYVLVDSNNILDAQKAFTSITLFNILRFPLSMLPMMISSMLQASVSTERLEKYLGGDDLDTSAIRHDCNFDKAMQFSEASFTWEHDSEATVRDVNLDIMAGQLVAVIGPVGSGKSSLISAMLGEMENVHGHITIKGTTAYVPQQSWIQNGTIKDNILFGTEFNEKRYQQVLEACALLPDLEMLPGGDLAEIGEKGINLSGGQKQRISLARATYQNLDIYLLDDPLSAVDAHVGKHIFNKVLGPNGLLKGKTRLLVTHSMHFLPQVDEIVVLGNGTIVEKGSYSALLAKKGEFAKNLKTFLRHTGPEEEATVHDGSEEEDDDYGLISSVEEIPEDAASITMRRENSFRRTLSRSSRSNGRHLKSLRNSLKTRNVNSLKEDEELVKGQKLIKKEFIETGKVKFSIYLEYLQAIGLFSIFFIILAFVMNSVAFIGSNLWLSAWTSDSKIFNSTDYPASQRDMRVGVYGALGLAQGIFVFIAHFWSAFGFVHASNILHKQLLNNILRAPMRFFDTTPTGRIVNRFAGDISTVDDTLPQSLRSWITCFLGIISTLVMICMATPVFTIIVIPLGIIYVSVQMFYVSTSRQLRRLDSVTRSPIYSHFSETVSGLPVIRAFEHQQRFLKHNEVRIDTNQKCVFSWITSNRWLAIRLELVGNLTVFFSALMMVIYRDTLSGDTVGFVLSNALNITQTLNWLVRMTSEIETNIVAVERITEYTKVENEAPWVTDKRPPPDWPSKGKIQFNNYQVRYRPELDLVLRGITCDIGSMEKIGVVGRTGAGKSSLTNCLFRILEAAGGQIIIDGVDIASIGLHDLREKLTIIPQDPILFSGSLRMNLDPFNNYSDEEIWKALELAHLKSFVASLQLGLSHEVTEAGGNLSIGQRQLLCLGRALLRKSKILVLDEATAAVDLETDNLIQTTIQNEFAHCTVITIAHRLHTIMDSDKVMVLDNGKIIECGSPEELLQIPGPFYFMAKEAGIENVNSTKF
MDR1/ABCB1, sequence (P08183 whole entry): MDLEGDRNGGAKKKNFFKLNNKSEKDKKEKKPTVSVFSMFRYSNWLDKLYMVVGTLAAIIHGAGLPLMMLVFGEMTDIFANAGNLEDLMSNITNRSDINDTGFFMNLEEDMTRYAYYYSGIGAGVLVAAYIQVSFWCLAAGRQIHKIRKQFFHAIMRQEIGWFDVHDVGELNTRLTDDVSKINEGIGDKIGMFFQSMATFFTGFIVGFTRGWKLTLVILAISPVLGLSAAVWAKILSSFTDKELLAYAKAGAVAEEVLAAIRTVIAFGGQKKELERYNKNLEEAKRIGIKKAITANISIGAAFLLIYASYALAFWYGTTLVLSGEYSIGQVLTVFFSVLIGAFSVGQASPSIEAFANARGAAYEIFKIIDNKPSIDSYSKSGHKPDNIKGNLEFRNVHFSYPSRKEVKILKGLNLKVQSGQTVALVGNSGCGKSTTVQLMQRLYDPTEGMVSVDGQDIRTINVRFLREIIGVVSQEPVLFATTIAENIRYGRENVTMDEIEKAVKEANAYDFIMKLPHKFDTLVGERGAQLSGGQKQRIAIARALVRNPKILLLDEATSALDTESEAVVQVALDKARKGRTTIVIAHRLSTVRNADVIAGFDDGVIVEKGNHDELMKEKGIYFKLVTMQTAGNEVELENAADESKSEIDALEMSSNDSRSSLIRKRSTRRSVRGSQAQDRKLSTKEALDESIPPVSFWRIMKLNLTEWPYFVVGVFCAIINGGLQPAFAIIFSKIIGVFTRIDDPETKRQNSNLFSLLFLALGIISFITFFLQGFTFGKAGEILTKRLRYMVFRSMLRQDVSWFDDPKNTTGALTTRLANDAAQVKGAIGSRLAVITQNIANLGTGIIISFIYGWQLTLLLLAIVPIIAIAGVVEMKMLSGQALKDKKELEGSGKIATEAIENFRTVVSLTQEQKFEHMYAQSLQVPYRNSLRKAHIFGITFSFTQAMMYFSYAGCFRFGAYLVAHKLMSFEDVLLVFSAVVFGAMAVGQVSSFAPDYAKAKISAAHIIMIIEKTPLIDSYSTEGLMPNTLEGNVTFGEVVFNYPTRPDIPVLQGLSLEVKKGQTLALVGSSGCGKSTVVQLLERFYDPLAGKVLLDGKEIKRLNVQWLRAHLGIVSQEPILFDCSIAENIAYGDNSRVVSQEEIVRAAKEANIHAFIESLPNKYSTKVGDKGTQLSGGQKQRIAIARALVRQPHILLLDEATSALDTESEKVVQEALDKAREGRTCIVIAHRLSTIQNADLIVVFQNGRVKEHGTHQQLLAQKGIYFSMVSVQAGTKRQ

The IC50 is the midpoint of a concentration-inhibition curve. Regarding `O=C(Nc1cc(C(F)(F)F)cc(C(F)(F)F)c1)Nc1ccc(Br)cc1-c1nnn[nH]1` [SCO-101, N-[4-Bromo-2-(1H-1,2,3,4-tetrazol-5-yl)phenyl]-N′-[3,5-bis(trifluoromethyl)phenyl]urea], the IC50 is 24.1 µM at MRP2/ABCC2; 16.1 µM against MDR1/ABCB1; 0.1 µM on human UGT1A1 enzyme (substrate SN-38 10 μM, read-out: IC50, UGT1A1 glucuronidation of SN-38); 0.28 µM at human UGT1A1 enzyme (substrate β-estradiol 10 μM, read-out: IC50, UGT1A1 glucuronidation of β-estradiol). In addition, in the assay with HT29SN-38 cells, the H33342 dye accumulation result is listed as “restored”.
